ChEMBL document CHEMBL1201862, “PubChem BioAssay data set” (2004)
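Compound exposure: 48 hours, 5 concentrations, 96-well plates. GI50 = concentration required for 50% inhibition of growth.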 The source made the active and inactive calls. No stated cut-off is given here; in the data, active = GI50 up to about 1.1 µM and inactive = higher.

Tests used:
Experiment in all cases: inhibition of tumour cell growth, NCI panel, 48 h
[1] = system: SNB-19
[2] = system: Malme-3M
[3] = system: SF-268
[4] = system: HCC 2998
[5] = system: KM12
[6] = system: OVCAR-4
[7] = system: U-251
[8] = system: UO-31
[9] = system: NCI-H23
[10] = system: HOP-62
[11] = system: SF-295
[12] = system: CAKI-1
[13] = system: SK-MEL-2
[14] = system: DLD-1
[15] = system: EKVX
[16] = system: MOLT-4
[17] = system: DMS-273
[18] = system: A549
[19] = system: HCT-15
[20] = system: SF-539
[21] = system: HOP-18
[22] = system: M19-MEL
[23] = system: OVCAR-5
[24] = system: SK-MEL-28
[25] = system: OVCAR-8
[26] = system: XF498
[27] = system: UACC-62
[28] = system: DMS-114
[29] = system: LOX IMVI
[30] = system: SK-MEL-5
[31] = system: OVCAR-3
[32] = system: SN12C
[33] = system: HL-60
[34] = system: HT-29
[35] = system: UACC-257
[36] = system: SK-OV-3
[37] = system: IGROV-1
[38] = system: NCI-H226
[39] = system: NCI-H460
[40] = system: CCRF-CEM
[41] = system: MCF7
[42] = system: SW-620
[43] = system: A498
[44] = system: KM-20L2
[45] = system: HCT-116
[46] = system: HOP-92
[47] = system: SNB-75
[48] = system: COLO 205
[49] = system: SNB-78
[50] = system: K562
[51] = system: RPMI-8226
[52] = system: NCI-H522
[53] = system: RXF 393
[54] = system: NCI/ADR-RES

For `COC(=O)C[C@](O)(CCC(C)(C)O)C(=O)O[C@@H]1C(OC)=C[C@]23CCCN2CCc2cc4c(cc2[C@H]13)OCO4` [HARRINGTONINE], the GI50 [1] was 50.9 nM (active), the GI50 [2] was 28.4 nM (active) and the GI50 [3] was 148 nM (active). The GI50 [4] was 23.9 nM (active), the GI50 [5] was 69.3 nM (active) and the GI50 [6] was 78.5 nM (active). The GI50 [7] was 51.5 nM (active), the GI50 [8] was 1700 nM (inactive) and the GI50 [9] was 86.3 nM (active). The GI50 [10] was 166 nM (active), the GI50 [11] was 186 nM (active) and the GI50 [12] was 193 nM (active). The GI50 [13] was 98.9 nM (active), the GI50 [14] was 121 nM (active) and the GI50 [15] was 80.2 nM (active). The GI50 [16] was 33.3 nM (active), the GI50 [17] was 28.8 nM (active) and the GI50 [18] was 57.9 nM (active). The GI50 [19] was 379 nM, the GI50 [20] was 29.5 nM (active) and the GI50 [21] was 229 nM (active). For the same molecule, the GI50 [22] was 107 nM (active), the GI50 [23] was 233 nM (active) and the GI50 [24] was 59.3 nM (active). For the same molecule, the GI50 [25] was 160 nM (active), the GI50 [26] was < 10 nM (active) and the GI50 [27] was 230 nM (active). The GI50 [28] was 15.2 nM (active), the GI50 [29] was 47 nM (active) and the GI50 [30] was 55.7 nM (active). The GI50 [31] was 59.8 nM (active), the GI50 [32] was 212 nM (active) and the GI50 [33] was 40.3 nM (active). For the same molecule, the GI50 [34] was 66.1 nM (active), the GI50 [35] was 158 nM (active) and the GI50 [36] was 98.4 nM (active). For the same molecule, the GI50 [37] was 50.5 nM (active), the GI50 [38] was 30.6 nM (active) and the GI50 [39] was < 18.2 nM (active). The GI50 [40] was 50.8 nM (active), the GI50 [41] was 28.8 nM (active) and the GI50 [42] was 119 nM (active). For the same molecule, the GI50 [43] was 73 nM (active), the GI50 [44] was 84.3 nM (active) and the GI50 [45] was 33.6 nM (active). The GI50 [46] was 164 nM (active), the GI50 [47] was 209 nM (active) and the GI50 [48] was 97.7 nM (active). For the same molecule, the GI50 [49] was 256 nM (active), the GI50 [50] was 50 nM (active) and the GI50 [51] was 56.6 nM (active). The GI50 [52] was 20.6 nM (active), the GI50 [53] was 103 nM (active) and the GI50 [54] was 7740 nM (inactive).
